# Source: ChEMBL document CHEMBL1146317, “2-(2,2,2-Trifluoroethyl)-5,6-dichlorobenzimidazole derivatives as potent androgen receptor antagonists” (Bioorg Med Chem Lett, 2007)
# Calls of active or inactive are those of the source. The rule behind the calls is not given here.
# Organism: Rattus norvegicus
# Test: Inhibition of testoterone-induced prostate weight in castrated immature Sprague-Dawley rat
# Type: functional, Prostate gland
# Details: not given
row,SMILES,ID50 [mg/day]
1,O=C(Cn1c(CC(F)(F)F)nc2cc(Cl)c(Cl)cc21)c1ccccn1,0.47
2,FC(F)(F)Cc1nc2cc(Cl)c(Cl)cc2n1Cc1ccc(Br)cc1,0.13
3,FC(F)(F)Cc1nc2cc(Cl)c(Cl)cc2n1Cc1ccccc1-c1ccccc1,0.55
4,FC(F)(F)Cc1nc2cc(Cl)c(Cl)cc2n1Cc1ccccc1,0.37
5,FC(F)(F)Cc1nc2cc(Cl)c(Cl)cc2n1Cc1ccccc1Br,0.38
6,FC(F)(F)Cc1nc2cc(Cl)c(Cl)cc2n1Cc1ccc(Cl)cc1,0.28
7,FC(F)(F)Cc1nc2cc(Cl)c(Cl)cc2n1Cc1ccccc1Cl,0.26
8,FC(F)(F)Cc1nc2cc(Cl)c(Cl)cc2n1Cc1ccccc1-c1ccccn1,0.4
9,CC(O)(CS(=O)(=O)c1ccc(F)cc1)C(=O)Nc1ccc(C#N)c(C(F)(F)F)c1 (centres undefined) [BICALUTAMIDE],0.23
10,Fc1ccccc1Cn1c(CC(F)(F)F)nc2cc(Cl)c(Cl)cc21,0.82
11,Fc1ccc(Cn2c(CC(F)(F)F)nc3cc(Cl)c(Cl)cc32)cc1,0.19
12,FC(F)(F)Cc1nc2cc(Cl)c(Cl)cc2n1Cc1cccc(C(F)(F)F)c1,0.4
13,O=[N+]([O-])c1ccccc1Cn1c(CC(F)(F)F)nc2cc(Cl)c(Cl)cc21,0.95

# Organism: Rattus norvegicus
# Test: Inhibition of testoterone-induced prostate weight in castrated immature Sprague-Dawley rat at 2 mg/day relative to control
# Type: functional, Prostate gland
# Details: not given
row,SMILES,Inhibition [%]
1,O=C(Cn1c(CC(F)(F)F)nc2cc(Cl)c(Cl)cc21)c1ccccn1,76
2,FC(F)(F)Cc1nc2cc(Cl)c(Cl)cc2n1Cc1cccc(Cl)c1,35
3,Fc1c(F)c(F)c(Cn2c(CC(F)(F)F)nc3cc(Cl)c(Cl)cc32)c(F)c1F,19
4,N#Cc1ccc(Cn2c(CC(F)(F)F)nc3cc(Cl)c(Cl)cc32)cc1,68
5,O=C(O)c1ccc(Cn2c(CC(F)(F)F)nc3cc(Cl)c(Cl)cc32)cc1,38
6,O=C(Cn1c(CC(F)(F)F)nc2cc(Cl)c(Cl)cc21)c1ccc(Br)cc1,27
7,FC(F)(F)Cc1nc2cc(Cl)c(Cl)cc2n1Cc1ccc(Br)cc1,75
8,FC(F)(F)Cc1nc2cc(Cl)c(Cl)cc2n1Cc1ccccc1-c1ccccc1,79
9,FC(F)(F)Cc1nc2cc(Cl)c(Cl)cc2n1Cc1cccc(OC(F)(F)F)c1,26
10,Fc1ccc(OCCn2c(CC(F)(F)F)nc3cc(Cl)c(Cl)cc32)cc1,40
11,FC(F)(F)Cc1nc2cc(Cl)c(Cl)cc2n1Cc1ccccc1,79
12,FC(F)(F)Cc1nc2cc(Cl)c(Cl)cc2n1Cc1ccccc1-c1cccnc1,80
13,OC(O)(c1nc2cc(Cl)c(Cl)cc2n1Cc1ccccc1)C(F)(F)F,85
14,FC(F)(F)Cc1nc2cc(Cl)c(Cl)cc2n1Cc1ccccc1-c1ccncc1,42
15,FC(F)(F)Cc1nc2cc(Cl)c(Cl)cc2n1Cc1ccc(C(F)(F)F)cc1C(F)(F)F,13
16,O=S(=O)(Cc1ccccc1Cn1c(CC(F)(F)F)nc2cc(Cl)c(Cl)cc21)c1ccccc1,74
17,FC(F)(F)Cc1nc2cc(Cl)c(Cl)cc2n1Cc1ccc(OC(F)(F)F)cc1,35
18,CS(=O)(=O)c1ccc(Cn2c(CC(F)(F)F)nc3cc(Cl)c(Cl)cc32)cc1,32
19,FC(F)(F)Cc1nc2cc(Cl)c(Cl)cc2n1Cc1ccccc1Br,84
20,FC(F)(F)Cc1nc2cc(Cl)c(Cl)cc2n1Cc1ccc(SC(F)(F)F)cc1,13
21,O=C(Cn1c(CC(F)(F)F)nc2cc(Cl)c(Cl)cc21)c1cccs1,43

row,SMILES,Inhibition [%]
1,COc1ccccc1C(=O)Cn1c(CC(F)(F)F)nc2cc(Cl)c(Cl)cc21,10
2,FC(F)(F)Cc1nc2cc(Cl)c(Cl)cc2n1Cc1ccc(Cl)cc1,77
3,OC(c1nc2cc(Cl)c(Cl)cc2n1Cc1ccccc1)C(F)(F)F (centres undefined),49
4,Cc1ccccc1Cn1c(CC(F)(F)F)nc2cc(Cl)c(Cl)cc21,73
5,FC(F)(F)Cc1nc2cc(Cl)c(Cl)cc2n1Cc1ccccn1,89
6,OC(c1nc2cc(Cl)c(Cl)cc2n1Cc1ccccn1)C(F)(F)F (centres undefined),84
7,OC(O)(c1nc2cc(Cl)c(Cl)cc2[nH]1)C(F)(F)F,94
8,CC(O)(c1nc2cc(Cl)c(Cl)cc2n1CC#N)C(F)(F)F (centres undefined),54
9,OC(c1nc2cc(Cl)c(Cl)cc2[nH]1)C(F)(F)F (centres undefined),96
10,FC(F)(F)Cc1nc2cc(Cl)c(Cl)cc2n1Cc1ccccc1Cl,90
11,FC(F)(F)Cc1nc2cc(Cl)c(Cl)cc2n1Cc1ccc(OCc2ccccc2)cc1,46
12,CC(O)(c1nc2cc(Cl)c(Cl)cc2[nH]1)C(F)(F)F (centres undefined),74
13,O=C(Cn1c(CC(F)(F)F)nc2cc(Cl)c(Cl)cc21)c1ccc(Cl)cc1,33
14,Oc1ccc(Cn2c(CC(F)(F)F)nc3cc(Cl)c(Cl)cc32)cc1,28
15,FC(F)(F)Cc1nc2cc(Cl)c(Cl)cc2n1Cc1ccccc1-c1ccccn1,89
16,CC(O)(CS(=O)(=O)c1ccc(F)cc1)C(=O)Nc1ccc(C#N)c(C(F)(F)F)c1 (centres undefined) [BICALUTAMIDE],70
17,Fc1ccccc1Cn1c(CC(F)(F)F)nc2cc(Cl)c(Cl)cc21,77
18,Fc1cccc(OCCn2c(CC(F)(F)F)nc3cc(Cl)c(Cl)cc32)c1,22
19,FC(F)(F)Cc1nc2cc(Cl)c(Cl)cc2n1CCOc1ccc(Cl)cc1,48
20,FC(F)(F)Cc1nc2cc(Cl)c(Cl)cc2n1Cc1ccc(C(F)(F)F)cc1,75
21,O=C(Cn1c(CC(F)(F)F)nc2cc(Cl)c(Cl)cc21)c1cccc([N+](=O)[O-])c1,14

row,SMILES,Inhibition [%]
1,Fc1ccc(Cn2c(CC(F)(F)F)nc3cc(Cl)c(Cl)cc32)cc1,80
2,COc1ccc(Cn2c(CC(F)(F)F)nc3cc(Cl)c(Cl)cc32)cc1,51
3,FC(F)(F)Cc1nc2cc(Cl)c(Cl)cc2[nH]1,90
4,Fc1cccc(Cn2c(CC(F)(F)F)nc3cc(Cl)c(Cl)cc32)c1,55
5,COCn1c(C(C)(O)C(F)(F)F)nc2cc(Cl)c(Cl)cc21 (centres undefined),88
6,O=[N+]([O-])c1ccc(Cn2c(CC(F)(F)F)nc3cc(Cl)c(Cl)cc32)cc1,61
7,O=C(Cn1c(CC(F)(F)F)nc2cc(Cl)c(Cl)cc21)c1ccc(F)cc1,67
8,CCOC(=O)c1ccc(Cn2c(CC(F)(F)F)nc3cc(Cl)c(Cl)cc32)cc1,56
9,N#Cc1ccc(OCCn2c(CC(F)(F)F)nc3cc(Cl)c(Cl)cc32)cc1,86
10,N#Cc1cccc(Cn2c(CC(F)(F)F)nc3cc(Cl)c(Cl)cc32)c1,70
11,O=[N+]([O-])c1cccc(Cn2c(CC(F)(F)F)nc3cc(Cl)c(Cl)cc32)c1,49
12,OCCn1c(CC(F)(F)F)nc2cc(Cl)c(Cl)cc21,54
13,FC(F)(F)Cc1nc2cc(Cl)c(Cl)cc2n1Cc1cccc(C(F)(F)F)c1,74
14,COc1ccccc1Cn1c(CC(F)(F)F)nc2cc(Cl)c(Cl)cc21,51
15,O=C(Cn1c(CC(F)(F)F)nc2cc(Cl)c(Cl)cc21)c1ccc([N+](=O)[O-])cc1,71
16,CCC(=O)Cn1c(CC(F)(F)F)nc2cc(Cl)c(Cl)cc21,64
17,Cc1cccc(Cn2c(CC(F)(F)F)nc3cc(Cl)c(Cl)cc32)c1,31
18,O=[N+]([O-])c1ccccc1Cn1c(CC(F)(F)F)nc2cc(Cl)c(Cl)cc21,81
19,O=C(Cn1c(CC(F)(F)F)nc2cc(Cl)c(Cl)cc21)c1ccccc1,38
20,FC(F)(F)Cc1nc2cc(Cl)c(Cl)cc2n1Cc1ccccc1C(F)(F)F,86
21,N#Cc1ccccc1Cn1c(CC(F)(F)F)nc2cc(Cl)c(Cl)cc21,74

# Same assay, conditions: Prostate gland
row,SMILES,Activity
1,CCn1c(C(C)(O)C(F)(F)F)nc2cc(Cl)c(Cl)cc21 (centres undefined),inactive
2,COc1cccc(Cn2c(CC(F)(F)F)nc3cc(Cl)c(Cl)cc32)c1,inactive
3,Cn1c(C(C)(O)C(F)(F)F)nc2cc(Cl)c(Cl)cc21 (centres undefined),inactive
4,O=C(Cn1c(CC(F)(F)F)nc2cc(Cl)c(Cl)cc21)c1cccnc1,inactive
5,COc1cccc(C(=O)Cn2c(CC(F)(F)F)nc3cc(Cl)c(Cl)cc32)c1,inactive
6,COc1ccc(C(=O)Cn2c(CC(F)(F)F)nc3cc(Cl)c(Cl)cc32)c(OC)c1,inactive

# Organism: Rattus norvegicus
# Test: Toxicity in castrated immature Sprague-Dawley rat at 2 mg/day
# Details: in vivo
row,SMILES,Activity
1,FC(F)(F)C(F)(F)c1nc2cc(Cl)c(Cl)cc2[nH]1,Toxic

# Organism: Rattus norvegicus
# Test: Inhibition of testoterone-induced prostate weight in castrated immature Sprague-Dawley rat at 1 mg/day relative to control
# Type: functional, Prostate gland
# Details: not given
row,SMILES,Inhibition [%]
1,FC(c1nc2cc(Cl)c(Cl)cc2[nH]1)C(F)(F)F (centres undefined),81
